Laboratory results taken from the NIST ThermoML archive (doi:10.1016/j.tca.2011.06.020).

Tests used:
[1] = xn = mol fraction of the nth substance listed; conditions: 101 kPa, Liquid; for speed of sound: Sing-around technique in a fixed-path interferometer; for mass density: Vibrating tube method
[2] = excess molar enthalpy (molar enthalpy of mixing); xn = mol fraction of the nth substance listed; conditions: 308.15 K, 101 kPa, Liquid, Drop calorimetry

Cc1ccccc1N [2-methylaniline] + C1CCOCC1
[1]
Conditions	mass density, 298.15 K [kg/m3]	mass density, 303.15 K [kg/m3]	mass density, 308.15 K [kg/m3]	speed of sound, 298.15 K [m/s]	speed of sound, 303.15 K [m/s]	speed of sound, 308.15 K [m/s]
x1 = 0.0732	890.691	885.73	880.749	1296.4	1274.1	1252.5
x1 = 0.1342	899.769	894.897	890.021	1318.6	1296.8	1275.8
x1 = 0.1768	905.846	900.991	896.174	1334	1312.5	1292
x1 = 0.2207	911.867	907.057	902.258	1349.8	1328.6	1308.5
x1 = 0.2721	918.66	913.86	909.112	1368.2	1347.1	1327.6
x1 = 0.3328	926.351	921.578	916.872	1389.3	1368.7	1349.5
x1 = 0.3562	929.219	924.445	919.758	1397.3	1376.9	1357.8
x1 = 0.3901	933.275	928.536	923.89	1409	1388.5	1369.8
x1 = 0.4288	937.818	933.094	928.469	1421.8	1401.6	1383.1
x1 = 0.4567	940.995	936.325	931.715	1431	1411.1	1392.3
x1 = 0.5014	945.986	941.37	936.823	1445.5	1425.7	1407.2
x1 = 0.5362	949.788	945.194	940.693	1456.6	1437	1418.2
x1 = 0.5982	956.336	951.867	947.455	1475.7	1456.5	1437.6
x1 = 0.6243	959.04	954.607	950.235	1483.6	1464.7	1445.7
x1 = 0.6644	963.103	958.737	954.427	1495.7	1477	1457.6
x1 = 0.7125	967.87	963.596	959.361	1510.2	1491.3	1471.8
x1 = 0.7703	973.454	969.292	965.131	1527.4	1508.7	1488.6
x1 = 0.8025	976.501	972.384	968.276	1537	1518.1	1497.9
x1 = 1	994.351	990.224	986.069	1602.6	1577.8	1558.4

Cc1ccccc1N [2-methylaniline] + CNC=O
[1]
Conditions	mass density, 298.15 K [kg/m3]	mass density, 303.15 K [kg/m3]	mass density, 308.15 K [kg/m3]	speed of sound, 298.15 K [m/s]	speed of sound, 303.15 K [m/s]	speed of sound, 308.15 K [m/s]
x1 = 0.0656	1000.18	995.882	991.55	1454.3	1438.4	1423.3
x1 = 0.1258	1000.98	996.704	992.418	1472.4	1456.3	1440.9
x1 = 0.1673	1001.39	997.124	992.87	1484.1	1467.8	1452.2
x1 = 0.2127	1001.71	997.464	993.254	1496	1479.7	1463.8
x1 = 0.2466	1001.88	997.65	993.459	1504.4	1488.2	1471.9
x1 = 0.2789	1001.99	997.753	993.588	1512.1	1495.7	1479.4
x1 = 0.3081	1002.03	997.811	993.675	1518.6	1502.3	1485.7
x1 = 0.3356	1002.04	997.839	993.709	1524.4	1508.2	1491.4
x1 = 0.3898	1001.96	997.768	993.664	1535.2	1518.9	1501.9
x1 = 0.4383	1001.79	997.624	993.525	1544	1527.6	1510.4
x1 = 0.4802	1001.56	997.416	993.334	1551.1	1534.6	1517.2
x1 = 0.5269	1001.25	997.104	993.02	1558.2	1541.5	1524.1
x1 = 0.5599	1000.97	996.843	992.76	1562.9	1545.9	1528.5
x1 = 0.6006	1000.59	996.484	992.392	1568.2	1551.1	1533.6
x1 = 0.6519	1000.02	995.935	991.837	1574.4	1556.7	1539.2
x1 = 0.7244	999.105	995.043	990.907	1582.2	1563.4	1546
x1 = 0.7904	998.148	994.083	989.937	1588.2	1568.3	1550.9
x1 = 0.8485	997.204	993.14	988.977	1592.8	1571.9	1554.2
x1 = 1	994.351	990.224	986.069	1602.6	1577.8	1558.4

[2]
Conditions	excess molar enthalpy [kcal/mol]
x1 = 0.0486	-0.0402
x1 = 0.0972	-0.0749
x1 = 0.1358	-0.101
x1 = 0.1888	-0.126
x1 = 0.2267	-0.145
x1 = 0.2786	-0.16
x1 = 0.3432	-0.175
x1 = 0.3972	-0.182
x1 = 0.4209	-0.183
x1 = 0.4811	-0.181
x1 = 0.5306	-0.175
x1 = 0.5822	-0.162
x1 = 0.6225	-0.153
x1 = 0.6788	-0.138
x1 = 0.7121	-0.124
x1 = 0.7826	-0.0967
x1 = 0.8127	-0.0858
x1 = 0.8455	-0.0712

CNC=O [N-methylformamide] + C1CCOCC1
[1]
Conditions	mass density, 298.15 K [kg/m3]	mass density, 303.15 K [kg/m3]	mass density, 308.15 K [kg/m3]	speed of sound, 298.15 K [m/s]	speed of sound, 303.15 K [m/s]	speed of sound, 308.15 K [m/s]
x2 = 0	999.004	994.653	990.302	1432.9	1417.7	1402.5
x2 = 0.0822	984.359	979.949	975.601	1411.8	1396.4	1380.7
x2 = 0.1587	971.886	967.407	963.009	1394	1377.9	1361.7
x2 = 0.2344	960.487	955.945	951.454	1377.9	1361	1344.4
x2 = 0.2633	956.359	951.788	947.263	1372.1	1355	1338.1
x2 = 0.3005	951.208	946.607	942.041	1365	1347.4	1330.3
x2 = 0.3572	943.711	939.057	934.409	1354.5	1336.5	1319.1
x2 = 0.3814	940.623	935.944	931.277	1350.3	1332	1314.5
x2 = 0.4163	936.288	931.584	926.867	1344.4	1325.8	1308
x2 = 0.4334	934.212	929.494	924.763	1341.6	1322.9	1305
x2 = 0.4851	928.124	923.354	918.566	1333.4	1314.3	1296.1
x2 = 0.5122	925.036	920.247	915.428	1329.3	1310	1291.6
x2 = 0.5693	918.752	913.91	909.049	1321	1301.3	1282.6
x2 = 0.6064	914.817	909.949	905.053	1315.9	1296	1277
x2 = 0.6571	909.625	904.722	899.79	1309.1	1289	1269.6
x2 = 0.6988	905.507	900.569	895.605	1303.8	1283.5	1263.7
x2 = 0.7315	902.361	897.401	892.421	1299.8	1279.3	1259.3
x2 = 0.7743	898.361	893.366	888.365	1294.7	1273.9	1253.5
x2 = 0.8468	891.856	886.811	881.763	1286.4	1265.1	1244.1

[2]
Conditions	excess molar enthalpy [kcal/mol]
x2 = 0.0662	0.00815
x2 = 0.1805	0.0293
x2 = 0.2254	0.0372
x2 = 0.2892	0.0493
x2 = 0.3252	0.0564
x2 = 0.3743	0.064
x2 = 0.4016	0.0666
x2 = 0.4724	0.0749
x2 = 0.5114	0.0772
x2 = 0.5562	0.0781
x2 = 0.5923	0.0776
x2 = 0.6242	0.0747
x2 = 0.6675	0.0727
x2 = 0.7153	0.0658
x2 = 0.7576	0.0603
x2 = 0.7901	0.0533
x2 = 0.8152	0.0482
x2 = 0.8676	0.0367
